Experimental data taken from US6921824B1, “Ruthenium dimeric complexes suitable as antimetastatic and antineoplastic agents” (priority 1999, dated 2005).
Marks after values point to notes of the source that are not given here.

Experiments:
[1] = LD0.05 determination, intraperitoneal treatment for 6 consecutive days (Lichtfield and Wilcoxon); assay type: in vivo; conditions: observation time 10 days since last dose
Experimental: (§1) The dosages corresponding to the LD0.05, calculated separately in animals of the same strain and gender and having the same body weight, was administered intraperitoneally for 6 consecutive days, according to the method of Lichtfield and Wilcoxon, and with an observation time of 10 days since last dose.

[2] = system: murine TS/A adenocarcinoma cells; assay: In vitro cytotoxicity, SRB test (protein synthesis); assay type: cell-based; conditions: for Antiproliferative activity (in words): SRB and MTT, up to 72 h
Experimental: (§2) In vitro cytotoxicity of complexes of the present invention on murine TS/A adenocarcinoma cells.
(§3) 4×10^3 murine TS/A adenocarcinoma cells resuspended in 200 μl RPMI-1640 medium supplemented with 10% FCS (fetal calf serum), 2 mM glutamine and 50 μg/ml gentamicin sulphate, were seeded in a 96-wells plate. After 24 hours incubation at 37° C., in 5% CO2, the complexes as described in example 4 (A), in example 7 (B), in example 8 (C) and in example 10 (D), each solubilised in RPMI-1640 medium supplemented with 5% FCS, 2 mM glutamine and 50 μg/ml gentamicin sulphate, were added to the cells, each at a final concentration of 10^−4, 10^−5 and 10^−6 M. Cell viability tests were performed after 24, 48 and 72 hours of exposure to the compounds by assessing both the effect on protein synthesis and on mitochondrial activity by means of colorimetric assays, respectively the solphorodamine B test (SRB) and the MTT analysis. Each value (optical density) is the average percentage ±S.E. versus the untreated controls.
(§4) Values such as *p<0.05, **p<0.01 indicate average values statistically different from the controls. Analysis of Variance and Dunnet test were used in the comparison analysis.
(§5) The results are reported in Table 3, wherein both the effect on protein synthesis (SRB) and the mitochondrial activity (MTT) are reported for each complexes tested at different dosages after different exposure time.

[3] = system: murine TS/A adenocarcinoma cells; assay: In vitro cytotoxicity, MTT analysis (mitochondrial activity); assay type: cell-based
Experimental: as §2, §3, §4, §5

[4] = system: MCa mammary carcinoma; assay: Post-surgical treatment: inhibition of lung metastases at advanced stage of growth, MCa mammary carcinoma; assay type: in vivo, CBA mice; conditions: for Lung metastases Number % T/C / Lung metastases weight % T/C: Treated/Control; for Lung metastases Number / Lung metastases Weight: evaluated day 28; for Growth of the lung metastases (in words): post-surgical treatment at LD0.05 dosages
Experimental: In vivo testing of the activity of the compounds according to the present invention in mice affected by MCa mammary carcinoma: inhibition activity of lung metastases at an advanced stage of growth.
Five groups of CBA kin female mice weighing 23±3 g were inoculated with […] viable MCa mammary carcinoma cells (as determined by trypan blue exclusion) in 0.05 ml Dulbecco's pH 7.4 buffered calcium- and magnesium-free solution (PBS) by intramuscular injection with a sterile insulin syringe. The tumour cells were derived from donors of the same strain injected with the same tumour cells and with the same procedures 2 weeks before. The suspension of tumour cells was prepared in PBS by mechanical mincing of the tumour mass obtained from donor mice, and further removal of tissue debris and cells was obtained, respectively, by filtration through a double layer of sterile gauze and centrifugation at 250× g for 10 minutes. Kin animals were obtained from a colony from Chester Beatthy from London (UK) and were grown in the University of Trieste animal house accordingly to the procedures accepted for the rearing of kin animals. The MCa mammary carcinoma tumour cell-line was derived from a stock, stored in liquid nitrogen, of tumour cells originally obtained from Rudjer Boskovic Institute of Zagreb (HR).
On day 14 since tumour cells implantation, the primary tumour was surgically removed, after general anesthesia of the animals by intraperitoneal injection of 125 mg/kg of Ketamine.
From day 15 to day 20 after tumour cells implantation, the five mice groups were treated, intraperitoneally with a sterile insulin syringe, respectively with: • Group 1 Control (7 animals): 10 ml/kg of body weight/day of sterile and pyrogen-free physiological solution; • Group 2 (7 animals): 28 mg/kg of body weight/day of the compound as prepared in Example 4 in sterile and pyrogen-free physiological solution; • Group 3 (7 animals): 28 mg/kg of body weight/day of the compound as prepared in Example 7 in sterile and pyrogen-free physiological solution; • Group 4 (7 animals): 51 mg/kg of body weight/day of the compound as prepared in Example 8 in sterile and pyrogen-free physiological solution; • Group 5 (7 animals): 52 mg/kg of body weight/day of the compound as prepared in Example 10 in sterile and pyrogen-free physiological solution.
as §1
On day 28 since tumour cells implantation, the mice were sacrificed by cervical dislocation for the evaluation of lung metastases. The lungs were abducted from the animals immediately after sacrifice, divided in single lobes that were soon examined with a low-magnification microscope equipped with a graduated ocular-grid for the measurement of metastases size, where the orthogonal axes a and b (a≦b) were identified. The metastases were then classified by size and the metastatic tumour weight for each animal was calculated as the sum of each single metastasis weight, each of them considered as a rotation solid developed around the above mentioned axes according to the formula (π/6)·a^2·b. The experimental data obtained were then processed by appropriate statistical tests.
The results are reported in Table 2, where the number and weight of lung metastases obtained in groups of animals treated with the compounds of the present invention with respect to the group of controls treated with sterile and pyrogen-free physiological solution, are shown.

[5] = 28 mg/kg of body weight/day i.p. day 15-20, post-surgical
[6] = 52 mg/kg of body weight/day i.p. day 15-20, post-surgical
[7] = 51 mg/kg of body weight/day i.p. day 15-20, post-surgical

Molecule | LD0.05 [1] | SRB optical density, average percentage ±S.E. versus untreated controls ([2]; 10^−4 M, exposure time 24 h) | SRB optical density, average percentage ±S.E. versus untreated controls ([2]; 10^−4 M, exposure time 48 h) | SRB optical density, average percentage ±S.E. versus untreated controls ([2]; 10^−4 M, exposure time 72 h) | SRB optical density, average percentage ±S.E. versus untreated controls ([2]; 10^−5 M, exposure time 24 h) [%] | SRB optical density, average percentage ±S.E. versus untreated controls ([2]; 10^−5 M, exposure time 48 h) [%] | SRB optical density, average percentage ±S.E. versus untreated controls ([2]; 10^−5 M, exposure time 72 h) [%] | SRB optical density, average percentage ±S.E. versus untreated controls ([2]; 10^−6 M, exposure time 24 h) [%] | SRB optical density, average percentage ±S.E. versus untreated controls ([2]; 10^−6 M, exposure time 48 h) [%] | SRB optical density, average percentage ±S.E. versus untreated controls ([2]; 10^−6 M, exposure time 72 h) [%] | MTT optical density, average percentage ±S.E. versus untreated controls ([3]; 10^−4 M, exposure time 24 h) | MTT optical density, average percentage ±S.E. versus untreated controls ([3]; 10^−4 M, exposure time 48 h) | MTT optical density, average percentage ±S.E. versus untreated controls ([3]; 10^−4 M, exposure time 72 h) | MTT optical density, average percentage ±S.E. versus untreated controls ([3]; 10^−5 M, exposure time 24 h) [%] | MTT optical density, average percentage ±S.E. versus untreated controls ([3]; 10^−5 M, exposure time 48 h) [%] | MTT optical density, average percentage ±S.E. versus untreated controls ([3]; 10^−5 M, exposure time 72 h) [%] | MTT optical density, average percentage ±S.E. versus untreated controls ([3]; 10^−6 M, exposure time 24 h) [%] | MTT optical density, average percentage ±S.E. versus untreated controls ([3]; 10^−6 M, exposure time 48 h) [%] | MTT optical density, average percentage ±S.E. versus untreated controls ([3]; 10^−6 M, exposure time 72 h) [%] | Growth of the lung metastases (in words) [4] | also measured
C[SH](C)(=O)[Ru-]([Cl])([Cl])([Cl])([Cl])[n+]1cc[n+]([Ru-]([Cl])([Cl])([Cl])([Cl])[SH](C)(C)=O)cc1.[Na+].[Na+] [Example 4, [Na]2[trans-RuCl4(Me2SO)]2(μ-pyz)] | 28 mg/kg of body weight/day | 32 ± 1** % | 51 ± 2** % | 66 ± 2** % | 99 ± 5 | 95 ± 1 | 95 ± 2 | 112 ± 3 | 102 ± 5 | 107 ± 2 | 34 ± 1** % | 50 ± 7** % | 59 ± 1** % | 100 ± 10 | 108 ± 12 | 93 ± 4 | 105 ± 10 | 101 ± 9 | 89 ± 2 | reduce significantly | Antiproliferative activity (in words) [2]: scarce and reversible; Lung metastases Number % T/C [4, 5]: 80%; Lung metastases weight % T/C [4, 5]: 39%; Lung metastases Number [4, 5]: 41.4 ± 8.0; Lung metastases Weight [4, 5]: 96 ± 20 mg
C[SH](C)(=O)[Ru-]([Cl])([Cl])([Cl])([Cl])[n+]1ccc[n+]([Ru-]([Cl])([Cl])([Cl])([Cl])[SH](C)(C)=O)c1.[Na+].[Na+] [Example 7, [Na]2[trans-RuCl4(Me2SO)]2(μ-pym)] | 28 mg/kg of body weight/day | 58 ± 2** % | 73 ± 8* % | 61 ± 2** % | 95 ± 9 | 108 ± 5 | 100 ± 1 | 101 ± 9 | 100 ± 3 | 95 ± 7 | 90 ± 10% | 71 ± 12* % | 60 ± 1** % | 117 ± 1 | 104 ± 9 | 93 ± 9 | 110 ± 2 | 110 ± 13 | 104 ± 8 | reduce significantly | Lung metastases Number % T/C [4, 5]: 78%; Lung metastases weight % T/C [4, 5]: 44%; Lung metastases Number [4, 5]: 40.4 ± 7.4; Lung metastases Weight [4, 5]: 107 ± 31 mg
C[SH](C)(=O)[Ru-]([Cl])([Cl])([Cl])([Cl])[n+]1ccc(CCc2cc[n+]([Ru-]([Cl])([Cl])([Cl])([Cl])[SH](C)(C)=O)cc2)cc1.[Na+].[Na+] [Example 10, [Na]2[trans-RuCl4(Me2SO)]2(μ-etbipy)] | 52 mg/kg of body weight/day | 47 ± 2** % | 62 ± 14** % | 73 ± 2** % | 81 ± 8 | 94 ± 3 | 95 ± 1 | 102 ± 9 | 81 ± 5 | 93 ± 5 | 76 ± 9% | 65 ± 4** % | 76 ± 4** % | 97 ± 12 | 93 ± 2 | 84 ± 5 | 114 ± 7 | 109 ± 4 | 88 ± 4 | reduce significantly | Lung metastases Number % T/C [4, 6]: 53%; Lung metastases weight % T/C [4, 6]: 29%; Lung metastases Number [4, 6]: 27.8 ± 7.8; Lung metastases Weight [4, 6]: 71 ± 20 mg
[Na]2[trans-RuCl4(Me2SO)]2(μ-bipy) [Example 8] | 51 mg/kg of body weight/day | 16 ± 1** % | 49 ± 6** % | 78 ± 5** % | 102 ± 9 | 86 ± 9 | 88 ± 7 | 77 ± 6 | 92 ± 8 | 95 ± 2 | 33 ± 5** % | 52 ± 9** % | 68 ± 4** % | 129 ± 9 | 91 ± 3 | 90 ± 2 | 91 ± 7 | 103 ± 9 | 93 ± 5 | reduce significantly | Antiproliferative activity (in words) [2]: scarce and reversible; Lung metastases Number % T/C [4, 7]: 40%; Lung metastases weight % T/C [4, 7]: 31%; Lung metastases Number [4, 7]: 20.6 ± 7.3; Lung metastases Weight [4, 7]: 76 ± 31 mg
